What was measured:
HIV-1 RT K103N/P225H = biological target: T1, HIV-1 RT K103N/P225H (Human immunodeficiency virus type 1 group M subtype B, UniProt P03366, K702N/P824H); experiment: Reverse transcriptase (RT) assay, K103N/P225H mutant; type: biochemical
T1 construct: an HIV RT clone pKRT2 containing only the RT p66 gene regulated by the lac operon/trc promoter; made in house; host or cells: E. coli JM109, vector pKK233-2
Source text: (§1) Among the enzymes for which Human Immunodeficiency Virus (HIV-1) encodes is a reverse transcriptase (1), so-named because it transcribes a DNA copy from an RNA template. This activity can be quantitatively measured in a cell-free enzyme assay and is based upon the observation that reverse transcriptase is able to use a synthetic template poly r(C) primed with a biotinylated oligo d(G) to transcribe a radio-labelled DNA strand utilising 3H-dGTP as a substrate. The assay described below utilises the wild-type enzyme (which is the predominant form of the enzyme observed in patients infected with HIV-1) and can also be used with mutant RT enzymes (for example, Y181C, prepared by site-directed mutagenesis in which the tyrosine residue at codon 181 has been replaced by a cysteine residue) in analogous assay conditions. This assay allows compounds to be evaluated for their effectiveness at inhibiting the mutant enzymes.
(§2) Some HIV-1 IIIB clone BH10 RT mutants were provided by Dr. C.-K. Shih (Boehringer Ingelheim Pharmaceutials Inc., U.S.A.) in the vector pKK233-2 (Pharmacia). Briefly an HIV RT clone pKRT2 containing only the RT p66 gene regulated by the lac operon/trc promoter was obtained from Dr. W. Summers (Yale University) (2). A variety of specific amino acid substitutions were introduced into the wild-type RT gene by site-directed mutagenesis. RT clones were subcloned into the pKK233-2 bacterial expression vector. Clones provided included wild-type, Val106Ala, Tyr181Cys, Tyr188Cys, Tyr188Leu, Gly190Ala and Pro236Leu. Others were made in-house by site-directed mutagenesis of the pKK233-2 RT clones including Lys103Asn, Lys103Asn/Tyr181Cys, Lys103Asn/Leu100Ile, Lys103Asn/Pro225His, and Lys103Asn/Val108Ile.
(§3) Purification of recombinant reverse transcriptase was performed using a combination of methods previously described (3). A single colony from a fresh plate of transformed JM109 cells was used to initiate growth of a pre-culture grown o/n at 37° C. Two liters of growth medium were inoculated with this pre-culture. At OD600˜1.5 (5-6 h at 37° C.), RT gene expression was induced with IPTG (1 mM final), and the fermentation was continued for a few more hours at 37° C. After centrifugation, supernatants were discarded while cell pellets were pooled and stored at −80° C. until purification. Cells were thawed at 4° C. overnight and suspended in lysis buffer (MES 50 mM pH 6, EDTA 1 mM, 10% v/v glyerol, 0.02% w/v OBG, 0.02% w/v sodium azide). Lysozyme was added and the mixture was incubated on ice for 40 minutes. After homogenization using a bounce in presence of lysozyme and sonication, the cells were centrifuged for 30 minutes. Supernatant (S1) was saved and stored at 4° C. The centrifuged pellet was resuspended in extraction buffer (MES 50 mM pH 6, KPO4 50 mM pH 6, KCl 100 mM, 10% v/v glycerol, 0.02% w/v OBG, 0.02% w/v sodium axide) and stirred for 30 minutes at 4° C. This second mixture was centrifuged again and the supernatant (S2) was saved. The above procedure was repeated 2 more times saving supernatants S3 and S4 and one last extraction was performed overnight (S5). Polymin P (0.005% final) was added to the combined supernatants to remove nucleic acids. This solution was stirred for 75 minutes at 4° C. and centrifuged for 1 h. The supernatant (SS1) was precipitated on ice with 20% w/v ammonium sulfate and stirred for 1 h at 4° C. The mixture was then centrifuged and the resulting supernatant (SS2) was precipitated with additional 40% w/v ammonium sulfate (60% total), stirred for 1 h and centrifuged again. The final pellet (P1) was stored overnight at 4° C. before undergoing purification the following day. All steps of the purification were performed at 4° C. unless otherwise stated.
(§4) Pellet (P1) was resuspended into MES 50 mM pH 6, KPO4 10 mM pH 6, KCl 100 mM, 10% v/v glycerol, 0.02% w/v OBG, 0.02% w/v sodium azide. The suspension was dialysis against the same buffer overnight using 12-14 kD MWCO dialysis tubing. […]

HIV-1 RT Y188L = biological target: T2, HIV-1 RT Y188L (Human immunodeficiency virus type 1 group M subtype B, UniProt P03366, Y787L); experiment: Reverse transcriptase (RT) assay, Y188L mutant; type: biochemical
T2 construct: an HIV RT clone pKRT2 containing only the RT p66 gene regulated by the lac operon/trc promoter; made in house; host or cells: E. coli JM109, vector pKK233-2
Source text: as §1, §2, §3, §4

HIV-1 RT K103N/L100I = biological target: T3, HIV-1 RT K103N/L100I (Human immunodeficiency virus type 1 group M subtype B, UniProt P03366, K702N/L699I); experiment: Reverse transcriptase (RT) assay, K103N/L100I mutant; type: biochemical
T3 construct: an HIV RT clone pKRT2 containing only the RT p66 gene regulated by the lac operon/trc promoter; made in house; host or cells: E. coli JM109, vector pKK233-2
Source text: as §1, §2, §3, §4

HIV-1 RT K103N = biological target: T4, HIV-1 RT K103N (Human immunodeficiency virus type 1 group M subtype B, UniProt P03366, K702N); experiment: Reverse transcriptase (RT) assay, K103N mutant; type: biochemical
T4 construct: an HIV RT clone pKRT2 containing only the RT p66 gene regulated by the lac operon/trc promoter; made in house; host or cells: E. coli JM109, vector pKK233-2
Source text: as §1, §2, §3, §4

HIV-1 RT K103N/V108I = biological target: T5, HIV-1 RT K103N/V108I (Human immunodeficiency virus type 1 group M subtype B, UniProt P03366, K702N/V707I); experiment: Reverse transcriptase (RT) assay, K103N/V108I mutant; type: biochemical
T5 construct: an HIV RT clone pKRT2 containing only the RT p66 gene regulated by the lac operon/trc promoter; made in house; host or cells: E. coli JM109, vector pKK233-2
Source text: as §1, §2, §3, §4

HIV-1 RT wild-type (WT) = biological target: T6, HIV-1 RT wild-type (WT) (Human immunodeficiency virus type 1 group M subtype B, UniProt P03366); experiment: Reverse transcriptase (RT) assay, wild-type enzyme; type: biochemical
T6 construct: an HIV RT clone pKRT2 containing only the RT p66 gene regulated by the lac operon/trc promoter; made in house; host or cells: E. coli JM109, vector pKK233-2
Source text: as §1, §2, §3, §4

HIV-1 RT Y181C = biological target: T7, HIV-1 RT Y181C (Human immunodeficiency virus type 1 group M subtype B, UniProt P03366, Y780C); experiment: Reverse transcriptase (RT) assay, Y181C mutant; type: biochemical
T7 construct: an HIV RT clone pKRT2 containing only the RT p66 gene regulated by the lac operon/trc promoter; made in house; host or cells: E. coli JM109, vector pKK233-2
Source text: as §1, §2, §3, §4

HIV-1 RT K103N/Y181C = biological target: T8, HIV-1 RT K103N/Y181C (Human immunodeficiency virus type 1 group M subtype B, UniProt P03366, K702N/Y780C); experiment: Reverse transcriptase (RT) assay, K103N/Y181C mutant; type: biochemical
T8 construct: an HIV RT clone pKRT2 containing only the RT p66 gene regulated by the lac operon/trc promoter; made in house; host or cells: E. coli JM109, vector pKK233-2
Source text: as §1, §2, §3, §4

HIV-1 RT V106A = biological target: T9, HIV-1 RT V106A (Human immunodeficiency virus type 1 group M subtype B, UniProt P03366, V705A); experiment: Reverse transcriptase (RT) assay, V106A mutant; type: biochemical
T9 construct: an HIV RT clone pKRT2 containing only the RT p66 gene regulated by the lac operon/trc promoter; made in house; host or cells: E. coli JM109, vector pKK233-2
Source text: as §1, §2, §3, §4

[1] = test system: HIV coding for wild-type reverse transcriptase (WT RT); experiment: ELISA (p24) assay of HIV replication in C8166 cell culture, wild-type RT virus; type: cell-based, HIV-1; conditions: Human immunodeficiency virus 1, C8166, 72 h, read-out: EC50 WT RT
Protocol: Compounds of the invention were tested for their ability to inhibit HIV replication in cell culture in a 96-well plate assay. Complete RPMI 1640, consisting of RPMI 1640+10% fetal bovine serum, 10 μg/ml gentamycin and 10 μM β-mercaptoethanol was used for dilution of the compound as well as cell growth medium. The T lymphocyte cell line C8166 was infected at a multiplicity of infection of 0.001 with viruses coding for wild-type and mutant reverse transcriptase. Cells were then incubated for three days in the presence of serial dilutions of the compounds of the invention. The supernatant was pooled from eight replica wells and the concentration of extracellular p24 was determined using a commercially available HIV-1 p24 antigen assay kit (Beckman-Coulter®). The level of inhibition (% inhibition) was calculated with the following equation: [formula]

SMILES	IC50 (HIV-1 RT K103N/P225H) [nM]	IC50 (HIV-1 RT Y188L) [nM]	IC50 (HIV-1 RT K103N/L100I) [nM]	IC50 (HIV-1 RT K103N) [nM]	IC50 (HIV-1 RT K103N/V108I) [nM]	IC50 (HIV-1 RT wild-type (WT)) [nM]	IC50 (HIV-1 RT Y181C) [nM]	IC50 (HIV-1 RT K103N/Y181C) [nM]	IC50 (HIV-1 RT V106A) [nM]	EC50 [1] [nM]
Cc1cc(F)nc2c1NC(=O)c1cc(CCOc3ccnc4ccccc34)cnc1N2C1CC1 [compound 5, 11-(Cyclopropyl)-5,11-dihydro-2-fluoro-4-methyl-8-{2-(4-quinolinyloxy)-ethyl}-6H-dipyrido[3,2-b:2′,3′-e][1,4]diazepin-6-one]	38	2540	98	37.5	38	19	76	536	61	0.83
CCN1c2ncc(CCOc3ccnc4ccccc34)cc2C(=O)N(C)c2ccc(F)nc21 [compound 4, 5,11-Dihydro-11-ethyl-2-fluoro-5-methyl-8-{2-(4-quinolinyloxy)ethyl}-6H-dipyrido[3,2-b:2′,3′-e][1,4]diazepin-6-one]	27	520	108	22.5	32	11	26	52	206	0.98
CCN1c2ncc(CCOc3cc[n+]([O-])c4ccccc34)cc2C(=O)Nc2c(C)cc(Cl)nc21 [compound 14, 2-Chloro-5,11-dihydro-11-ethyl-4-methyl-8-{2-{(1-oxido-4-quinolinyl)-oxy}ethyl}-6H-dipyrido[3,2-b:2′,3′-e][1,4]diazepin-6-one]	30	2300	24	19	59	15	28	61	77	0.67
CCN1c2ncc(CCOc3ccnc4ccccc34)cc2C(=O)Nc2c(C)cc(F)nc21 [compound 7, 5,11-Dihydro-11-ethyl-2-fluoro-4-methyl-8-{2-(4-quinolinyloxy)ethyl}-6H-dipyrido[3,2-b:2′,3′-e][1,4]diazepin-6-one]	46	4320	98	26	45	9.8	38	199	74	1.1
Cc1ccnc2c1NC(=O)c1cc(CCOc3ccnc4ccccc34)cnc1N2C1CC1 [compound 3, 11-(Cyclopropyl)-5,11-dihydro-4-methyl-8-{2-(4-quinolinyloxy)ethyl}-6H-dipyrido[3,2-b:2′,3′-e][1,4]diazepin-6-one]	56	3240	124	45	47	16.5	73	612	79	1.3
CN1C(=O)c2cc(CCOc3cc[n+]([O-])c4ccccc34)cnc2N(C2CC2)c2nc(Cl)ccc21 [compound 10, 2-Chloro-11-cyclopropyl-5,11-dihydro-5-methyl-8-{2-{(1-oxido-4-quinolinyl)oxy}ethyl}-6H-dipyrido[3,2-b:2′,3′-e][1,4]diazepin-6-one]	–	1420	229	67	255	41	206	710	1370	–
Cc1ccnc2c1NC(=O)c1cc(CCOc3cc[n+]([O-])c4ccccc34)cnc1N2C1CC1 [compound 15]	93	> 10000	270	66	215	61	226	1520	206	–
CCN1c2ncc(CCOc3ccnc4ccccc34)cc2C(=O)Nc2c(C)cc(Cl)nc21 [compound 1, 2-Chloro-5,11-dihydro-11-ethyl-4-methyl-8-{2-(4-quinolinyloxy)ethyl}-6H-dipyrido[3,2-b:2′,3′-e][1,4]diazepin-6-one]	31.2	2740	28.5	19	29	10.5	20	52	132	2.6
CCN1C(=O)c2cc(CCOc3cc[n+]([O-])c4ccccc34)cnc2N(CC)c2ncccc21 [compound 27, 5,11-Dihydro-5,11-diethyl-8-{2-{(1-oxido-4-quinolinyl)oxy}ethyl}-6H-dipyrido[3,2-b:2′,3′-e][1,4]diazepin-6-one]	–	5340	–	–	–	38	–	299	2270	–
CN1C(=O)c2cc(CCOc3ccnc4ccccc34)cnc2N(C2CC2)c2nc(Cl)ccc21 [compound 6, 2-Chloro-11-cyclopropyl-5,11-dihydro-5-methyl-8-{2-(4-quinolinyloxy)-ethyl}-6H-dipyrido[3,2-b:2′,3′-e][1,4]diazepin-6-one]	–	–	–	–	–	25	–	–	–	–
CCN1c2ncc(CCOc3cccc4c3ccc[n+]4[O-])cc2C(=O)Nc2c(C)cc(F)nc21 [compound 23, 5,11-Dihydro-11-ethyl-2-fluoro-4-methyl-8-{2-{(1-oxido-5-quinolinyl)-oxy}ethyl}-6H-dipyrido[3,2-b:2′,3′-e][1,4]diazepin-6-one]	–	5610	–	–	–	6.1	–	247	105	–
CCN1c2nc(Cl)ccc2NC(=O)c2cc(CCOc3cc[n+]([O-])c4ccccc34)cnc21 [compound 22, 2-Chloro-5,11-dihydro-11-ethyl-8-{2-{(1-oxido-4-quinolinyl)-oxy}ethyl}-6H-dipyrido[3,2-b:2′,3′-e][1,4]diazepin-6-one]	–	2990	–	–	–	45	–	336	2490	–

From US20020028807A1, “Non-nucleoside reverse transcriptase inhibitors” (priority 2000, published 2002)
